Reference: patent US8592174B2, “Peptidase substrates” (bioMérieux, S.A., priority 2009, dated 2013)

What was measured:
[1] = system: Gram-negative bacteria, Gram-positive bacteria, yeasts; settings: conclusion of Example 2
Procedure: 40 mg of each of the substrates were dissolved in 4 ml of dimethyl sulfoxide (80 mg for Asn-ASQM^+) and added to 400 ml of previously autoclaved Columbia medium. The 6 media were distributed into Petri dishes 90 mm in diameter, in a proportion of 20 ml per dish.
Seventeen strains of microorganisms stemming from collections and belonging to various species of bacteria and yeasts are inoculated in spots of approximately 10 000 colony-forming units.
The media are incubated for 24 hours at 37° C., and then the colonies formed are examined visually, with or without the addition of acid and under a UV lamp at 365 nm.

[2] = system: Bacillus subtilis NCTC 9 372; assay: Peptidase detection on Columbia medium (Example 2); assay type: cell-based; parameters: key to Growth: NG: No growth; 0.5: weak growth; 1: moderate growth; 2: good growth; key to Fluo. / Color / Color post-acid.: —: no color; settings: 40 mg in 400 ml Columbia, 24 h 37° C.
[3] = system: Escherichia coli NCTC 10 418; assay: Peptidase detection on Columbia medium (Example 2); assay type: cell-based; parameters: key to Growth: NG: No growth; 0.5: weak growth; 1: moderate growth; 2: good growth; settings: 40 mg in 400 ml Columbia, 24 h 37° C.
[4] = system: Staphylococcus aureus NCTC 11 939; assay: Peptidase detection on Columbia medium (Example 2); assay type: cell-based; parameters: key to Growth: NG: No growth; 0.5: weak growth; 1: moderate growth; 2: good growth; key to Fluo. / Color / Color post-acid.: —: no color; settings: 40 mg in 400 ml Columbia, 24 h 37° C.
[5] = system: Enterococcus faecium NCTC 7 171; assay: Peptidase detection on Columbia medium (Example 2); assay type: cell-based; parameters: key to Growth: NG: No growth; 0.5: weak growth; 1: moderate growth; 2: good growth; key to Fluo. / Color / Color post-acid.: —: no color; settings: 40 mg in 400 ml Columbia, 24 h 37° C.
[6] = system: Streptococcus pyogenes NCTC 8 306; assay: Peptidase detection on Columbia medium (Example 2); assay type: cell-based; parameters: key to Growth: NG: No growth; 0.5: weak growth; 1: moderate growth; 2: good growth; key to Fluo. / Color / Color post-acid.: —: no color; settings: 40 mg in 400 ml Columbia, 24 h 37° C.
[7] = system: Providencia rettgeri NCTC 7 475; assay: Peptidase detection on Columbia medium (Example 2); assay type: cell-based; parameters: key to Growth: NG: No growth; 0.5: weak growth; 1: moderate growth; 2: good growth; settings: 40 mg in 400 ml Columbia, 24 h 37° C.
[8] = system: Staphylococcus aureus NCTC 6 571; assay: Peptidase detection on Columbia medium (Example 2); assay type: cell-based; parameters: key to Growth: NG: No growth; 0.5: weak growth; 1: moderate growth; 2: good growth; key to Fluo. / Color / Color post-acid.: —: no color; settings: 40 mg in 400 ml Columbia, 24 h 37° C.
[9] = system: Enterococcus faecalis NCTC 775; assay: Peptidase detection on Columbia medium (Example 2); assay type: cell-based; parameters: key to Growth: NG: No growth; 0.5: weak growth; 1: moderate growth; 2: good growth; key to Fluo. / Color / Color post-acid.: —: no color; settings: 40 mg in 400 ml Columbia, 24 h 37° C.
[10] = system: Listeria monocytogenes NCTC 11 994; assay: Peptidase detection on Columbia medium (Example 2); assay type: cell-based; parameters: key to Growth: NG: No growth; 0.5: weak growth; 1: moderate growth; 2: good growth; key to Fluo. / Color / Color post-acid.: —: no color; settings: 40 mg in 400 ml Columbia, 24 h 37° C.
[11] = system: Candida albicans ATCC 90 028; assay: Peptidase detection on Columbia medium (Example 2); assay type: cell-based; parameters: key to Growth: NG: No growth; 0.5: weak growth; 1: moderate growth; 2: good growth; key to Fluo. / Color / Color post-acid.: —: no color; settings: 40 mg in 400 ml Columbia, 24 h 37° C.
[12] = system: Candida glabrata NCPF 3 943; assay: Peptidase detection on Columbia medium (Example 2); assay type: cell-based; parameters: key to Growth: NG: No growth; 0.5: weak growth; 1: moderate growth; 2: good growth; key to Fluo. / Color / Color post-acid.: —: no color; settings: 40 mg in 400 ml Columbia, 24 h 37° C.
[13] = system: Pseudomonas aeruginosa NCTC 10 662; assay: Peptidase detection on Columbia medium (Example 2); assay type: cell-based; parameters: key to Growth: NG: No growth; 0.5: weak growth; 1: moderate growth; 2: good growth; settings: 40 mg in 400 ml Columbia, 24 h 37° C.
[14] = system: Staphylococcus epidermidis NCTC 11 047; assay: Peptidase detection on Columbia medium (Example 2); assay type: cell-based; parameters: key to Growth: NG: No growth; 0.5: weak growth; 1: moderate growth; 2: good growth; key to Fluo. / Color / Color post-acid.: —: no color; settings: 40 mg in 400 ml Columbia, 24 h 37° C.
[15] = system: Serratia marcescens NCTC 10 211; assay: Peptidase detection on Columbia medium (Example 2); assay type: cell-based; parameters: key to Growth: NG: No growth; 0.5: weak growth; 1: moderate growth; 2: good growth; settings: 40 mg in 400 ml Columbia, 24 h 37° C.
[16] = system: Enterobacter cloacae NCTC 11 936; assay: Peptidase detection on Columbia medium (Example 2); assay type: cell-based; parameters: key to Growth: NG: No growth; 0.5: weak growth; 1: moderate growth; 2: good growth; settings: 40 mg in 400 ml Columbia, 24 h 37° C.
[17] = system: Yersinia enterocolitica NCTC 11 176; assay: Peptidase detection on Columbia medium (Example 2); assay type: cell-based; parameters: key to Growth: NG: No growth; 0.5: weak growth; 1: moderate growth; 2: good growth; settings: 40 mg in 400 ml Columbia, 24 h 37° C.
[18] = system: Salmonella typhimurium NCTC 74; assay: Peptidase detection on Columbia medium (Example 2); assay type: cell-based; parameters: key to Growth: NG: No growth; 0.5: weak growth; 1: moderate growth; 2: good growth; settings: 40 mg in 400 ml Columbia, 24 h 37° C.

NCCC(=O)Nc1ccc(C=Cc2ccc3ccccc3n2)cc1 [β-Ala-ASQ, β-alanyl-2-(4′-amidostyryl)quinoline]
—: Color [2] | Fluo. ([2]; UV lamp 365 nm) | Color post-acid. ([2]; addition of acid) | Color [4] | Fluo. ([4]; UV lamp 365 nm) | Color post-acid. ([4]; addition of acid) | Color [5] | Fluo. ([5]; UV lamp 365 nm) | Color post-acid. ([5]; addition of acid) | Color [6] | Fluo. ([6]; UV lamp 365 nm) | Color post-acid. ([6]; addition of acid) | Color [8] | Fluo. ([8]; UV lamp 365 nm) | Color post-acid. ([8]; addition of acid) | Color [9] | Fluo. ([9]; UV lamp 365 nm) | Color post-acid. ([9]; addition of acid) | Color [10] | Fluo. ([10]; UV lamp 365 nm) | Color post-acid. ([10]; addition of acid) | Color [11] | Fluo. ([11]; UV lamp 365 nm) | Color post-acid. ([11]; addition of acid) | Color [12] | Fluo. ([12]; UV lamp 365 nm) | Color post-acid. ([12]; addition of acid) | Color [14] | Fluo. ([14]; UV lamp 365 nm) | Color post-acid. ([14]; addition of acid)
2: Growth [3] | Growth [7] | Growth [13] | Growth [15] | Growth [16] | Growth [17] | Growth [18]
Pale yellow: Color post-acid. ([3]; addition of acid) | Color post-acid. ([7]; addition of acid) | Color post-acid. ([16]; addition of acid) | Color post-acid. ([17]; addition of acid) | Color post-acid. ([18]; addition of acid)
NG: Growth [2] | Growth [4] | Growth [5] | Growth [6] | Growth [8] | Growth [9] | Growth [10] | Growth [11] | Growth [12] | Growth [14]
toxic with respect to certain groups: toxicity / growth of microorganisms [1]
Orange: Color post-acid. ([13]; addition of acid) | Color post-acid. ([15]; addition of acid)
Green: Fluo. ([13]; UV lamp 365 nm) | Fluo. ([15]; UV lamp 365 nm)
